Key:
Assay in all cases: concentration in plasma after dosing
[1] = tested on: Rat; conditions: dosed: 1-Chloro-2-propanol, 15 mg/kg, oral, Female, F344
[2] = tested on: Rat; conditions: 0.5 h; dosed: 1-Chloro-2-propanol; 7.5 mg/kg; oral; Female; F344
[3] = tested on: Rat; conditions: dosed: 1-Chloro-2-propanol, oral
[4] = tested on: Rat; conditions: 40 min; dosed: 1-Chloro-2-propanol; 15 mg/kg; oral; Male; F344
[5] = tested on: Rat; conditions: dosed: 1-Chloro-2-propanol, 7.5 mg/kg, oral, Male, F344
[6] = tested on: Rat; conditions: dosed: 1-Chloro-2-propanol, 7.5 mg/kg, oral, Female, F344
[7] = tested on: Rat; conditions: dosed: 1-Chloro-2-propanol, 7.5 mg/kg, oral, Male, F344; remark: listed apart in the source
[8] = tested on: Rat; conditions: dosed: 1-Chloro-2-propanol, 7.5 mg/kg, oral, Male, F344; remark: listed apart in the source
[9] = tested on: Rat; conditions: dosed: 1-Chloro-2-propanol, 15 mg/kg, oral, Male, F344
[10] = tested on: Rat; conditions: 0.5 h; dosed: 1-Chloro-2-propanol; 7.5 mg/kg; oral; Female; F344; remark: listed apart in the source
[11] = tested on: Rat; conditions: dosed: 1-Chloro-2-propanol, 15 mg/kg, oral, Female, Harlan Sprague-Dawley
[12] = tested on: Rat; conditions: dosed: 1-Chloro-2-propanol, 15 mg/kg, oral, Male, F344; remark: listed apart in the source
[13] = tested on: Rat; conditions: dosed: 1-Chloro-2-propanol, 15 mg/kg, oral, Female, F344; remark: listed apart in the source
[14] = tested on: Rat; conditions: dosed: 1-Chloro-2-propanol, 7.5 mg/kg, oral, Male, F344; remark: listed apart in the source
[15] = tested on: Rat; conditions: dosed: 1-Chloro-2-propanol, 15 mg/kg, oral, Female, F344; remark: listed apart in the source
[16] = tested on: Rat; conditions: dosed: 1-Chloro-2-propanol, 15 mg/kg, oral, Female, Harlan Sprague-Dawley; remark: listed apart in the source
[17] = tested on: Rat; conditions: dosed: 1-Chloro-2-propanol, 7.5 mg/kg, oral, Female, F344; remark: listed apart in the source
[18] = tested on: Rat; conditions: dosed: 1-Chloro-2-propanol, 15 mg/kg, oral, Female, Harlan Sprague-Dawley; remark: listed apart in the source
[19] = tested on: Rat; conditions: 10 min; dosed: 1-Chloro-2-propanol; 7.5 mg/kg; oral; Female; F344
[20] = tested on: Rat; conditions: dosed: 1-Chloro-2-propanol, 7.5 mg/kg, oral, Female, F344; remark: listed apart in the source
[21] = tested on: Rat; conditions: dosed: 1-Chloro-2-propanol, 7.5 mg/kg, oral, Male, F344; remark: listed apart in the source
[22] = tested on: Rat; conditions: dosed: 1-Chloro-2-propanol, 15 mg/kg, oral, Male, F344; remark: listed apart in the source
[23] = tested on: Rat; conditions: dosed: 1-Chloro-2-propanol, 7.5 mg/kg, oral, Male, F344; remark: listed apart in the source
[24] = tested on: Rat; conditions: dosed: 1-Chloro-2-propanol, 7.5 mg/kg, oral, Male, F344; remark: listed apart in the source
[25] = tested on: Rat; conditions: dosed: 1-Chloro-2-propanol, 7.5 mg/kg, oral, Female, F344; remark: listed apart in the source
[26] = tested on: Rat; conditions: dosed: 1-Chloro-2-propanol, 15 mg/kg, oral, Male, F344; remark: listed apart in the source
[27] = tested on: Rat; conditions: dosed: 1-Chloro-2-propanol, 15 mg/kg, oral, Female, F344; remark: listed apart in the source
[28] = tested on: Rat; conditions: dosed: 1-Chloro-2-propanol, 15 mg/kg, oral, Female, Harlan Sprague-Dawley; remark: listed apart in the source
[29] = tested on: Rat; conditions: 40 min; dosed: 1-Chloro-2-propanol; 7.5 mg/kg; oral; Male; F344
[30] = tested on: Rat; conditions: 20 min; dosed: 1-Chloro-2-propanol; 7.5 mg/kg; oral; Female; F344

CC(O)CCl (stereo not drawn) [1-Chloro-2-propanol]
Conditions | concentration in plasma [ng/mL]
[1], 1 h | 897
[1], 5 min | 4660
[5], 1 h | 393
[5], 10 min | 900
[6], 1.5 h | 81
[6], 20 min | 740
[7], 5 min | 1600
[7], 40 min | 750
[8], 0.5 h | 1360
[8], 2 h | 56
[9], 2 h | 131
[9], 10 min | 6070
[11], 0.5 h | 3970
[11], 2.5 h | 79
[12], 2 h | 203
[12], 10 min | 6460
[13], 1 h | 630
[13], 5 min | 6880
[14], 0.5 h | 1040
[14], 2 h | 75
[15], 2 h | 112
[15], 10 min | 4730
[16], 1.5 h | 354
[16], 20 min | 6300
[17], 5 min | 2360
[17], 40 min | 720
[18], 0.5 h | 4680
[18], 2.5 h | 71
[20], 1 h | 133
[20], 10 min | 1260
[21], 1.5 h | 144
[21], 20 min | 960
[22], 1 h | 940
[22], 5 min | 6120
[23], 1.5 h | 108
[23], 20 min | 1270
[24], 1 h | 195
[24], 10 min | 1400
[25], 5 min | 1170
[25], 40 min | 213
[26], 1 h | 1020
[26], 5 min | 3020
[27], 2 h | 72
[27], 10 min | 6200
[28], 1.5 h | 780
[28], 20 min | 4590

Conditions | concentration in plasma [ng/mL]
[2] | 740
[4] | 2740
[10] | 730
[19] | 1450
[29] | 810
[30] | 830

concentration in plasma [ng/mL], [3]
Conditions | 0.5 h | 1 h | 1.5 h | 2 h | 2.5 h | 3 h | 5 min | 10 min | 20 min | 40 min
7.5 mg/kg, Female, F344 | 479 | 138 | – | – | – | – | 1920 | 1890 | 1660 | 534
7.5 mg/kg, Male, F344 | 740 | 334 | 117 | 70 | – | – | 1660 | 1830 | 1030 | 638
15 mg/kg, Female, F344 | – | 677 | – | 127 | – | – | 3360 | 3860 | 3180 | –
15 mg/kg, Female, Harlan Sprague-Dawley | 3270 | – | 768 | – | 69 | 59 | – | – | 3020 | 4110
15 mg/kg, Male, F344 | – | 920 | – | 159 | – | 107 | 1700 | 5370 | – | 3300

Source: EPA's CvTdb concentration-time database
